Measurements reported in patent US20110306631A1, “TRIPLE SUBSTITUTED PHENANTHROLINE DERIVATIVES FOR THE TREATMENT OF NEURODEGENERATIVE OR HAEMATOLOGICAL DISEASES OR CONDITIONS, OR CANCER” (NOSCIRA, S.A., priority 2008, published 2011).

Legend:
[1] = system: SH-SY5Y human neuroblastoma cells; test: Toxicity: cell viability by LDH activity release; assay type: cell-based; details: 24 h
Protocol: The potential effects on cell viability of the tested compounds were assessed in SH-SY5Y human neuroblastoma cells, by quantification of Lactate dehydrogenase (LDH) activity release. SH-SY5Y human neuroblastoma cells were seeded into 96-well culture plates at 10^4 cells/well. The medium was then removed and the cells incubated with different concentrations of the compounds during 24 h. […] After 24 h, the medium was removed and cells attached to the bottom of the well were lysed by adding 50 μl of Krebs-Hepes; Triton X-100 1% during 5 minutes at room temperature. For LDH release quantification, the Roche cytotoxicity detection kit (Cat. No. 11 644 793 001) was used. The LDH activity was measured by its absorbance at 492 nm with reference wavelength 620 nm.
In Table 2, for each compound the maximum concentration at which cell viability was tested is indicated in the second column. In the third column, it is indicated whether at this maximum concentration the compound affected or not cell viability (>20% of cell death).

[2] = system: SH-SY5Y human neuroblastoma cells; test: Protection against hydrogen peroxide-induced cell death (LDH); assay type: cell-based; details: compound 1 h before H2O2 100 μM during 24 h
Protocol: The aim of this assay is to determine the neuroprotective effect of the compounds of formula (I), when human neuroblastoma cells are exposed to oxidative stress induced by hydrogen peroxide, which is highly deleterious to the cell and its accumulation causes oxidation of cellular targets such as DNA, proteins, and lipids leading to mutagenesis and cell death.
SH-SY5Y human neuroblastoma cells are seeded into 96-well culture plate at a density of 10^4 cells/well. Cells are exposed to different concentrations of the compound one hour before the treatment with H2O2 100 μM during 24 h. 5 mM N-acetylcysteine (NAC), a known anti-oxidant agent was used as a positive control, and preincubated 1 hour before the treatment with H2O2. After 24 h, the medium is removed and cells attached to the bottom of the well are lysed by adding 50 μl of Triton X-100 1% in Krebs-Hepes during 5 minutes at room temperature. For LDH release quantification, Roche cytotoxicity detection kit (Cat. No. 11 644 793 001) was used.

[3] = system: SH-SY5Y human neuroblastoma cells; test: Protection against 6-OHDA-induced cell death (LDH); assay type: cell-based; details: preincubated 2 hours before 6-OHDA 75 μM during 16 hours, 10% Foetal bovine serum
Excerpt: The aim of this experiment is to determine the protective effect of the compounds of formula (I) against the toxicity caused by 6-OHDA. This toxin induces a cell death similar to which occurs in Parkinson's disease, destroying dopaminergic neurons (“MPTP and 6-hydroxydopamine-induced neurodegeneration as models for Parkinson's disease: neuroprotective strategies”; Grunblatt E, et al.; J Neurol. 2000 April; 247 Suppl 2:II95-102).
Two or three days before the experiment, the SH-SY5Y human neuroblastoma cells are seeded into 96-well culture plate at a density of 10^4 cells/well. Cells are exposed to the treatment with 6-OHDA and, finally, cell death is measured by LDH quantification. As positive control we used NAC.
NAC and the compound of formula (I) are preincubated during 2 hours before the treatment with 6-OHDA 75 μM during 16 hours. The assay is performed in medium containing 10% Foetal bovine serum.
For each compound the minimum concentration of compound of formula (I) at which a neuroprotective effect is shown.

SH-SY5Y cells = test: Neuroprotection against Aβ25-35 toxicity (LDH); assay type: cell-based, human; details: pre-treated 1 hour, then 24 hours 200 μM Aβ25-35
Protocol: In order to evaluate potential neuroprotection of compounds, SH-SY5Y cells, cultured in 96-well plates, were pre-treated for 1 hour with the compound at different concentrations and then exposed 24 hours to 200 μM Aβ25-35 (Neosystem) to induce extensive oxidative stress and cell death. The ability of the compound of protecting against this toxicity is then evaluated by measuring intracellular LDH, using the colorimetric LDH assay.
It is widely accepted that the neurotoxic activity of Aβ resides within amino acids 25-35 (see e.g. Yankner B A et al., (1990) Neurotrophic and neurotoxic effects of amyloid β protein: reversal by tachykinin neuropeptides; Science 250:279-282).

[4] = system: Aβ (1-40) secretion, CHO7W (stably transfected with human APP751 wt cDNA); test: Inhibition of Aβ(1-40) secretion (ELISA of cellular supernatants); assay type: cell-based; details: CHO7W cells, Aβ(1-40) in supernatants
Excerpt: To quantitate Aβ secretion ELISA-based method was used. The assay consists in detection of antigen by selective monoclonal anti-Aβ-antibodies at two different epitopes forming a “Sandwich-complex”, that is detected by colorimetric measure due to the binding of a secondary antibody conjugated with peroxidase that catalyses the conversion of a substrate or chromogen, TMB, into a coloured product, directly proportional to the peptide quantity in the sample. The Aβ production has been analyzed by ELISA, using a colorimetric commercial kit: H-amuloid b-30 ELISA (The Genetics Company).
Aβ (1-40) were quantified from cellular supernatants. An APP-transfected cell line has been employed for the experiments: CHO7W (stably transfected with human APP751 wt cDNA). The cells were grown in a culture medium consisting of DMEM supplemented with 2% Fetal bovine serum, 1% penicillin-streptomycin, 1% L-glutamine and 200 μg/ml G418. Cells are seeded in 96-well culture microplate, at 5000 cells/well and treatment with different compounds at different concentrations is performed 24 hour after seeding.

[5] = maximum concentration tested 100 μM
[6] = maximum concentration tested 1000 μM

Row | SMILES | Yes/No: compound affected cell viability at maximum concentration tested [1, 5] | Protect H2O2 (minimum concentration for which protection against H2O2 was determined) [2] [µM] | Protection 6-OHDA (minimum concentration at which a neuroprotective effect is shown) [3] [µM] | Protection β-Amiloyd (minimum concentration showing neuroprotection against Aβ25-35 toxicity) (SH-SY5Y cells) [µM] | inhibition Aβ secretion (minimum concentration at which the compound inhibits beta-amyloid secretion) [4] [µM] | Yes/No: compound affected cell viability at maximum concentration tested [1, 6]
1 | COc1cc2cccnc2c2nc(/C=N/O)cc(SC)c12 [A, 5-methoxy-4-methylsulfanyl-[1,10]-phenanthroline-2-carbaldehyde oxime] | Y (affected or not cell viability (>20% of cell death)) | 0.05 | 0.05 | 5 | 0.1 | –
2 | COc1cc(/C=N/O)nc2c1c(F)cc1cccnc12 [B, 5-fluoro-4-methoxy-[1,10]-phenanthroline-2-carbaldehyde oxime] | – | 0.05 | 0.05 | 5 | 1 | N (affected or not cell viability (>20% of cell death))
3 | COCCOc1cc2cccnc2c2nc(/C=N/O)cc(OC)c12 [C, 4-methoxy-5-(2-methoxy-ethoxy)-[1,10]-phenanthroline-2-carbaldehyde oxime] | – | 0.005 | 0.5 | 5 | 0.1 | N (affected or not cell viability (>20% of cell death))
4 | CSc1cc(/C=N/O)nc2c1c(C)cc1cccnc12 [D, 5-methyl-4-methylsulfanyl-[1,10]phenanthroline-2-carbaldehyde oxime] | – | 0.5 | 0.05 | 0.5 | 1 | N (affected or not cell viability (>20% of cell death))
5 | COc1cc2c(SC)cc(/C=N/O)nc2c2ncccc12 [E, 6-methoxy-4-methylsulfanyl-[1,10]phenanthroline-2-carbaldehyde oxyme] | Y (affected or not cell viability (>20% of cell death)) | 0.05 | 0.5 | 10 | 10 | –
6 | COc1cc2c(=O)cc(/C=N/O)[nH]c2c2ncccc12 [F, 6-methoxy-4-oxo-1,4-dihydro-[1,10]phenanthroline-2-carbaldehyde oxime] | – | – | 10 | – | – | N (affected or not cell viability (>20% of cell death))
